In publication PMC3145970, “Specific CLK Inhibitors from a Novel Chemotype for Regulation of Alternative Splicing” (Chemistry & Biology, 2011):
Like-named read-outs stand apart in the source and are kept apart here.

What was measured:
[1] = system: panel of 71 protein kinases; test: Caliper mobility shift enzymatic kinase selectivity screening; type: biochemical; details: tested 0.1 nM to 10 μM; ATP at KM
Protocol: Enzymatic kinase selectivity screening was carried out using the Caliper mobility shift assay which is based on the difference in capillary electrophoresis mobility of a fluorescent tagged peptide as a result of the addition of a phosphate moiety by the studied kinase. The kinase reactions were started by addition of 4.5 μl substrate mix consisting of ATP and peptide substrate in assay buffer (50 mM HEPES [pH 7.5], 0.02% bovine serum albumin, 1 mM DTT, 0.02% Tween 20, 0.01 mM Na3VO4, 10 mM beta-glycerophosphate) and 4.5 μl enzyme solution in assay buffer. The peptide concentration was 2 μM. Concentrations for the enzyme, as well as for MgCl2 and MnCl2 were adjusted specifically to the requirements of the individual enzyme. ATP concentrations were adjusted to the KM values of the specific enzyme. After incubation for 60 min at 30°C the kinase reactions were stopped by addition of 16 μl stop solution (100 mM HEPES [pH 7.5], 5% DMSO, 0.1% coating reagent [Caliper Lifescience] 10 mM EDTA [pH 8.0], 0.015% BRIJ35). Stopped kinase reactions were analyzed in a LC3000 reader (Caliper Lifescience). Compounds were tested from 0.1 nM to 10 μM in eight steps.

[2] = system: phosphorylated SR proteins in HMEC-1 cells; test: SR protein phosphorylation, western blotting; type: cell-based, human; details: TNF-α-stimulated HMEC-1, increasing inhibitor concentration
Protocol: Western blot analysis of samples from cell lysates of inhibited, stimulated, and unstimulated HMEC-1 cells were performed as previously described ([Szotowski et al., 2005]). For detection of phosphorylated SR proteins, monoclonal antibody mAb1H4 (Invitrogen GmbH, Karlsruhe, Germany) was used.

[3] = target: CDK8 (Homo sapiens, UniProt P49336); test: Thermal stability shift assay; type: binding; details: read-out: Tm shift CDK8
CDK8, sequence (P49336 whole entry): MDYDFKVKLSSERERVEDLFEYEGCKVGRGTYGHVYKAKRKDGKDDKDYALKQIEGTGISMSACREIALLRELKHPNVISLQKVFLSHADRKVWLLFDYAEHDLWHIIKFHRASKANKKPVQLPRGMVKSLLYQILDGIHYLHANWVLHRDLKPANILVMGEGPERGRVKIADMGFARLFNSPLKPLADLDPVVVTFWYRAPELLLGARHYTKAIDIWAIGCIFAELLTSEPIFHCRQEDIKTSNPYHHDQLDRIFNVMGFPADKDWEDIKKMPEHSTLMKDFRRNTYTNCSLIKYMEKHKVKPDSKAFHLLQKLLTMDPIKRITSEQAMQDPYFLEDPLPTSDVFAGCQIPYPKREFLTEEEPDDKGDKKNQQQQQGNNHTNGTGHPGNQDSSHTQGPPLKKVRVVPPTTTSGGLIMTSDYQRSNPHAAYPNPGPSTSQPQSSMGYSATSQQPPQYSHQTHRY
Outline: (§1)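 2 μM protein + 10 μM inhibitor; 10 mM HEPES pH 7.5, 500 mM NaCl, SyproOrange 1:1000; melt in qPCR cycler, dye fluorescence monitored.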

[4] = target: T1, FES (Homo sapiens, UniProt P07332); test: Thermal stability shift assay; type: binding; details: read-out: Tm shift FES
T1 construct: purchased in-house (SGC Oxford thermal shift panel)
T1 sequence (P07332 whole entry): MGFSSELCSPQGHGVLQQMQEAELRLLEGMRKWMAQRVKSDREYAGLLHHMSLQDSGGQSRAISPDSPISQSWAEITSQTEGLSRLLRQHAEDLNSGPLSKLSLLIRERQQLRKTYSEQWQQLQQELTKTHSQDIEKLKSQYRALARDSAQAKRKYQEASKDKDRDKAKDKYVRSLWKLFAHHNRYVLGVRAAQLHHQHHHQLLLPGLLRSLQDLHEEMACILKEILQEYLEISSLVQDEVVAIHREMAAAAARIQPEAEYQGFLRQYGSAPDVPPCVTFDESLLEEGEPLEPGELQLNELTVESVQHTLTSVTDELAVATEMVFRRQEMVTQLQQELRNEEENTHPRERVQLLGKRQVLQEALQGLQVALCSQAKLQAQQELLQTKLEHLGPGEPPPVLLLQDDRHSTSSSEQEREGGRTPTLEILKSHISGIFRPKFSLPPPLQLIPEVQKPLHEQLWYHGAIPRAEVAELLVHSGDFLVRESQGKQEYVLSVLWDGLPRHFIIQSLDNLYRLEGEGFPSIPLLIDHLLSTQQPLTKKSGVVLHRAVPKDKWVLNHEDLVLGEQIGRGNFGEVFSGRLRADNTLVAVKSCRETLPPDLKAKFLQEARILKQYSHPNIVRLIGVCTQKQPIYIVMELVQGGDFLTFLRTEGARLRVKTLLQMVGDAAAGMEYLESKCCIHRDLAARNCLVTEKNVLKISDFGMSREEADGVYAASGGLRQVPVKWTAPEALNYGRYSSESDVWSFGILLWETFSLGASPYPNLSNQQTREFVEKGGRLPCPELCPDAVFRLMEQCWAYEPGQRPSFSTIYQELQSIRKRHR
Outline: as §1

[5] = target: T2, ALK4 (Homo sapiens, UniProt P36896); test: Thermal stability shift assay; type: binding; details: read-out: Tm shift ALK4
T2 sequence (P36896 24-505): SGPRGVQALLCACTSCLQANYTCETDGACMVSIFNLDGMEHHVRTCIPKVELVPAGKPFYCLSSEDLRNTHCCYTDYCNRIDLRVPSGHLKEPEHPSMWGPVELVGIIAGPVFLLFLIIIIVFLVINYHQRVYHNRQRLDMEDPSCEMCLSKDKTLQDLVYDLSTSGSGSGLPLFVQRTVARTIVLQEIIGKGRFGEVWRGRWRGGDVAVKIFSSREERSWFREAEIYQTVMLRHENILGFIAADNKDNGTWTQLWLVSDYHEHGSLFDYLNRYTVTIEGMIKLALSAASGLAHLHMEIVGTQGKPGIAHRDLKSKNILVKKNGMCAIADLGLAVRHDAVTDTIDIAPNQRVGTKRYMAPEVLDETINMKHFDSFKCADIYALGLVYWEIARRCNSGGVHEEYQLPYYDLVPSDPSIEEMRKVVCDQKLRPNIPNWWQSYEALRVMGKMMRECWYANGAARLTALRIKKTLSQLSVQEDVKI
Outline: as §1

[6] = target: CDKL1 (Homo sapiens, UniProt Q00532); test: Thermal stability shift assay; type: binding; details: read-out: Tm shift CDKL1
CDKL1, sequence (Q00532 whole entry): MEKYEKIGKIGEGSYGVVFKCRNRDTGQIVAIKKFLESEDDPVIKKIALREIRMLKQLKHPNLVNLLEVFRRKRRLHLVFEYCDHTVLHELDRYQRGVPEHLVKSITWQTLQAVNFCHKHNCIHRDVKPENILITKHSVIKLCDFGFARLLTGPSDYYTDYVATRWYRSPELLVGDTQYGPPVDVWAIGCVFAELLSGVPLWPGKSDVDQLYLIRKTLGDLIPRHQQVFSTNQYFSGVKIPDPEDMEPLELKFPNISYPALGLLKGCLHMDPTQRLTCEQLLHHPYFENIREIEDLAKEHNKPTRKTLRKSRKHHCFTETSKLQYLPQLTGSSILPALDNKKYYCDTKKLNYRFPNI
Outline: as §1

[7] = target: T3, RHOK (Homo sapiens, UniProt Q15835); test: Thermal stability shift assay; type: binding; details: read-out: Tm shift RHOK
T3 sequence (Q15835 1-563): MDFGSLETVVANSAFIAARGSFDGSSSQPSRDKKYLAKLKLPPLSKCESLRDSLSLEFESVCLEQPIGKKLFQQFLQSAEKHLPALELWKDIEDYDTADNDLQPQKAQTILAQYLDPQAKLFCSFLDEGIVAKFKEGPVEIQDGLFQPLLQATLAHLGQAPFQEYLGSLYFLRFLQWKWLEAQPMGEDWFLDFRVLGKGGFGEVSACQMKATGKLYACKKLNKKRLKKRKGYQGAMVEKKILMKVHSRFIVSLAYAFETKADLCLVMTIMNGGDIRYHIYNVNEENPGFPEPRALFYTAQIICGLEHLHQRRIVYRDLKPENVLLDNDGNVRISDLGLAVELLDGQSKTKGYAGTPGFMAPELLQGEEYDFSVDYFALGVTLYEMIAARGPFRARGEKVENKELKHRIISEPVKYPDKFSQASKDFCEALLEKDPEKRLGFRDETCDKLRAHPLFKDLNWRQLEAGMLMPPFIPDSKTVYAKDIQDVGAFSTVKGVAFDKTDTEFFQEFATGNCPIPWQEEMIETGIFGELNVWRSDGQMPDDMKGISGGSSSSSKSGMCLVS
Outline: as §1

[8] = target: CK2a2 (Homo sapiens, UniProt P19784); test: Thermal stability shift assay; type: binding; details: read-out: Tm shift CK2a2
CK2a2, sequence (P19784 whole entry): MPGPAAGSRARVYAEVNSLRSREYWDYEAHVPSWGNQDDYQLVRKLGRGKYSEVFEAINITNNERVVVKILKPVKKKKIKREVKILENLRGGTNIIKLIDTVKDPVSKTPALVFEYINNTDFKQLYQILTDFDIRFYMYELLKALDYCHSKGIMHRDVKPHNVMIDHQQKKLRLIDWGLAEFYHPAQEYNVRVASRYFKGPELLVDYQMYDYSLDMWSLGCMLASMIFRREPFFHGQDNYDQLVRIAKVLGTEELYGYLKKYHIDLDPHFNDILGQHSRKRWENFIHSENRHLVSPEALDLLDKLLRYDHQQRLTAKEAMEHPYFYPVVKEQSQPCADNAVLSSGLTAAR
Outline: as §1

[9] = system: flTF and asHTF mRNA in HMEC-1 cells; test: TF isoform mRNA expression (RT-PCR)
Protocol: For inhibition experiments, HMEC-1 endothelial cells were switched to EC basal medium (without fetal calf serum) for 1 hr. […] Analysis of the TF isoform mRNA expression was done 1 hr post stimulation with TNF-α and assessment of the phosphorylation state of SR proteins by western blotting was performed 2 min post induction of the cells. Positive controls were stimulated only with TNF-α, and negative controls were untreated.

[10] = system: panel of 106 kinases / 129 human protein kinases; test: Thermal shift assay, kinase panel; type: binding; details: inhibitor 10 μM
Protocol: Thermal denaturation experiments were carried out in an Mx3005p real-time PCR machine (Agilent) using a protein concentration of 2 μM and an inhibitor concentration of 10 μM. Samples were buffered in 10 mM HEPES (pH 7.5), 500 mM NaCl and a 1:1000 dilution of SyproOrange (Invitrogen). The assay and data evaluation were carried out as described ([Bullock et al., 2005])

| SMILES | Inhibition of panel of 71 protein kinases [1] | Dose response of SRp75 and SRp55 phosphorylation [2] | ΔTm at 10 µM [3] [°C] | ΔTm at 10 µM [4] [°C] | ΔTm at 10 µM [5] [°C] | ΔTm at 10 µM [6] [°C] | ΔTm at 10 µM [7] [°C] | ΔTm at 10 µM [8] [°C] | TNF-α-induced mRNA expression of flTF and asHTF ([9]; HMEC-1, 10 μM inhibitor, 10 ng/ml TNF-α, 1 hr post stimulation) | Basal mRNA expression of flTF and asHTF ([9]; resting HMEC-1, 10 μM inhibitor) | ΔTm at 10 µM ([3]; inhibitor 10 μM) [°C] | ΔTm at 10 µM ([4]; inhibitor 10 μM) [°C] | ΔTm at 10 µM ([5]; inhibitor 10 μM) [°C] | ΔTm at 10 µM ([6]; inhibitor 10 μM) [°C] | ΔTm at 10 µM ([7]; inhibitor 10 μM) [°C] | ΔTm at 10 µM ([8]; inhibitor 10 μM) [°C] | Interaction in thermal shift screen, panel of 106 kinases [10] |
| --- | --- | --- | --- | --- | --- | --- | --- | --- | --- | --- | --- | --- | --- | --- | --- | --- | --- |
| CCOC(=O)c1c(/C(C#N)=C\N)c2ccc(Cl)c(Cl)c2n1C [KH-CB19, (E)-Ethyl 3-(2-Amino-1-Cyanovinyl)-6,7-Dichloro-1-Methyl-1H-Indole-2-Carboxylate] | No additional kinases from the panel were inhibited | significantly reduced at increasing concentration of the inhibitor | 1.5 | -0.3 | 1.2 | 0 | 0.5 | 1.4 | lowered TNF-α-induced expression of both TF mRNA splice variants to baseline | significantly reduced the basal expression of flTF as well as asHTF | – | – | – | – | – | – | – |
| CCOC(=O)c1c(C(C#N)=CN)c2ccc(Cl)c(Cl)c2n1C (mixture of isomers) [KH-CB20, (E/Z)-Ethyl 3-(2-Amino-1-Cyanovinyl)-6,7-Dichloro-1-Methyl-1H-Indole-2-Carboxylate] | – | – | 1.3 | -0.3 | 1.4 | 0.2 | 0.3 | 1.3 | – | – | – | – | – | – | – | – | – |
| NC1=NC(=O)/C(=C2\CCNC(=O)c3[nH]c(Br)cc32)N1 [Hymenialdisine, hymenialdisine, reference compound] | – | – | – | – | – | – | – | – | – | – | 0.1 | 0.7 | 4.9 | 0.6 | 0.7 | 1.2 | – |
| CCOC(=O)c1c(C(C#N)=CN(C)C)c2ccc(Cl)c(Cl)c2n1C (mixture of isomers) [compound 2, (E/Z)-Ethyl 6,7-Dichloro-3-[1-Cyano-2-(Dimethylamino)Vinyl]-1-Methyl-1H-Indole-2-Carboxylate] | – | – | – | – | – | – | – | – | – | – | 0.4 | 0 | 4 | 0.6 | 0.9 | 0 | showed only interaction with CLK family members |
| Cn1c2c(Cl)c(Cl)ccc2c2c(C#N)c[nH]c(=O)c21 [compound 3, 7,8-Dichloro-9-Methyl-1-Oxo-2,9-Dihydro-1H-Pyrido[3,4-b]Indole-4-Carbonitrile] | – | – | – | – | – | – | – | – | – | – | 2.5 | 0 | 0.9 | 0.2 | 0.9 | 1.7 | showed only interaction with CLK family members |
